Laboratory results taken from ChEMBL document CHEMBL3885881, “DrugMatrix”.

Organism: Rattus norvegicus
Test: DrugMatrix - Regimen: Daily Repeat
Type: toxicity, organism-based, Sprague-Dawley
Parameters: regimen Daily Repeat, gender Male, age 6-8 weeks
Details: in vivo, po, route oral GAVAGE, vehicle 100 % WATER; for ABSOLUTE BASOPHIL / ABSOLUTE EOSINOPHIL / ABSOLUTE LYMPHOCYTE / ABSOLUTE MONOCYTE / ABSOLUTE SEGMENTED NEUTROPHIL / BASOPHIL / EOSINOPHIL / ERYTHROCYTE COUNT / HEMATOCRIT / LEUKOCYTE COUNT / LYMPHOCYTE / MEAN CORPUSCULAR HEMOGLOBIN / MEAN CORPUSCULAR HEMOGLOBIN CONCENTRATION / MEAN CORPUSCULAR VOLUME / MONOCYTE / NEUTROPHIL / NUCLEATED RED BLOOD CELLS / PLATELET COUNT: tissue Blood; for ALANINE AMINOTRANSFERASE / ALBUMIN / ALKALINE PHOSPHATASE / ASPARTATE AMINOTRANSFERASE / CARBON DIOXIDE / CHLORIDE / CHOLESTEROL / CREATINE PHOSPHOKINASE / CREATININE / LIPASE / POTASSIUM / TOTAL BILIRUBIN / TOTAL PROTEIN / BLOOD UREA NITROGEN: tissue Plasma
[1] = 0 mg/kg, 72 h, dose level Control, time 3 day
[2] = 0 mg/kg, 120 h, dose level Control, time 5 day
[3] = 44 mg/kg, 72 h, dose level Low, time 3 day
[4] = 44 mg/kg, 120 h, dose level Low, time 5 day

NC(=O)c1ncn([C@@H]2O[C@H](CO)[C@@H](O)[C@H]2O)n1 [RIBAVIRIN] was tested, and the “ABSOLUTE BASOPHIL” value [1] was 0 CELLS/uL, the “ABSOLUTE EOSINOPHIL” value [1] was 40 CELLS/uL and the “ABSOLUTE LYMPHOCYTE” value [1] was 13599.5 CELLS/uL. For the same molecule, the “ABSOLUTE MONOCYTE” value [1] was 239.33 CELLS/uL, the “ABSOLUTE SEGMENTED NEUTROPHIL” value [1] was 1021.17 CELLS/uL and the BASOPHIL [1] was 0%. For the same molecule, the EOSINOPHIL [1] was 0.33%, the “ERYTHROCYTE COUNT” value [1] was 5.71 x10E6/uL and the HEMATOCRIT [1] was 36.35%. The “LEUKOCYTE COUNT” value [1] was 14.9 x10E3/uL, the LYMPHOCYTE [1] was 91% and the “MEAN CORPUSCULAR HEMOGLOBIN” value [1] was 24.62 pg. The “MEAN CORPUSCULAR HEMOGLOBIN CONCENTRATION” value [1] was 38.65 G/DL, the “MEAN CORPUSCULAR VOLUME” value [1] was 63.7 fL and the MONOCYTE [1] was 1.5%. For the same molecule, the NEUTROPHIL [1] was 7.17%, the “NUCLEATED RED BLOOD CELLS” value [1] was 0.33 /100WBC and the “PLATELET COUNT” value [1] was 1225.5 x10E3/uL. The “ALANINE AMINOTRANSFERASE” value [1] was 48.5 u/L, the ALBUMIN [1] was 4.18 G/DL and the “ALKALINE PHOSPHATASE” value [1] was 390.83 u/L. For the same molecule, the “ASPARTATE AMINOTRANSFERASE” value [1] was 89 u/L, the “CARBON DIOXIDE” value [1] was 24.83 mmol/L and the CHLORIDE [1] was 100.83 MEQ/L. The CHOLESTEROL [1] was 72.5 mg/dL, the “CREATINE PHOSPHOKINASE” value [1] was 503 u/L and the CREATININE [1] was 0.2 mg/dL. For the same molecule, the LIPASE [1] was 9.83 u/L, the POTASSIUM [1] was 6.16 MEQ/L and the “TOTAL BILIRUBIN” value [1] was 0.2 mg/dL. For the same molecule, the “TOTAL PROTEIN” value [1] was 5.8 G/DL, the “ABSOLUTE BASOPHIL” value [2] was 0 CELLS/uL and the “ABSOLUTE EOSINOPHIL” value [2] was 21 CELLS/uL. The “ABSOLUTE LYMPHOCYTE” value [2] was 14288.5 CELLS/uL, the “ABSOLUTE MONOCYTE” value [2] was 205.33 CELLS/uL and the “ABSOLUTE SEGMENTED NEUTROPHIL” value [2] was 968.5 CELLS/uL. For the same molecule, the BASOPHIL [2] was 0%, the EOSINOPHIL [2] was 0.17% and the “ERYTHROCYTE COUNT” value [2] was 5.83 x10E6/uL. The HEMATOCRIT [2] was 36.53%, the “LEUKOCYTE COUNT” value [2] was 15.48 x10E3/uL and the LYMPHOCYTE [2] was 92%. For the same molecule, the “MEAN CORPUSCULAR HEMOGLOBIN” value [2] was 24.72 pg, the “MEAN CORPUSCULAR HEMOGLOBIN CONCENTRATION” value [2] was 39.43 G/DL and the “MEAN CORPUSCULAR VOLUME” value [2] was 62.68 fL. For the same molecule, the MONOCYTE [2] was 1.33%, the NEUTROPHIL [2] was 6.5% and the “NUCLEATED RED BLOOD CELLS” value [2] was 0.17 /100WBC. For the same molecule, the “PLATELET COUNT” value [2] was 1280.5 x10E3/uL, the “ALANINE AMINOTRANSFERASE” value [2] was 50 u/L and the ALBUMIN [2] was 4.28 G/DL. The “ALKALINE PHOSPHATASE” value [2] was 380.17 u/L, the “ASPARTATE AMINOTRANSFERASE” value [2] was 82.67 u/L and the “BLOOD UREA NITROGEN” value [2] was 15.33 mg/dL. The “CARBON DIOXIDE” value [2] was 27.17 mmol/L, the CHLORIDE [2] was 100.33 MEQ/L and the CHOLESTEROL [2] was 60.67 mg/dL. The “CREATINE PHOSPHOKINASE” value [2] was 441.5 u/L, the CREATININE [2] was 0.16 mg/dL and the LIPASE [2] was 9.17 u/L. The POTASSIUM [2] was 6.86 MEQ/L, the “TOTAL BILIRUBIN” value [2] was 0.2 mg/dL and the “TOTAL PROTEIN” value [2] was 6.12 G/DL. For the same molecule, the “ABSOLUTE BASOPHIL” value [3] was 0 CELLS/uL, the “ABSOLUTE EOSINOPHIL” value [3] was 33.67 CELLS/uL and the “ABSOLUTE LYMPHOCYTE” value [3] was 13109.33 CELLS/uL. For the same molecule, the “ABSOLUTE MONOCYTE” value [3] was 126 CELLS/uL, the “ABSOLUTE SEGMENTED NEUTROPHIL” value [3] was 1164.33 CELLS/uL and the BASOPHIL [3] was 0%. For the same molecule, the EOSINOPHIL [3] was 0.33%, the “ERYTHROCYTE COUNT” value [3] was 5.44 x10E6/uL and the HEMATOCRIT [3] was 33.17%. For the same molecule, the “LEUKOCYTE COUNT” value [3] was 14.43 x10E3/uL, the LYMPHOCYTE [3] was 91.33% and the “MEAN CORPUSCULAR HEMOGLOBIN” value [3] was 23.47 pg. The “MEAN CORPUSCULAR HEMOGLOBIN CONCENTRATION” value [3] was 38.53 G/DL, the “MEAN CORPUSCULAR VOLUME” value [3] was 60.97 fL and the MONOCYTE [3] was 0.67%. For the same molecule, the NEUTROPHIL [3] was 7.67%, the “NUCLEATED RED BLOOD CELLS” value [3] was 0 /100WBC and the “PLATELET COUNT” value [3] was 1365.67 x10E3/uL. For the same molecule, the “ALANINE AMINOTRANSFERASE” value [3] was 53 u/L, the ALBUMIN [3] was 4.3 G/DL and the “ALKALINE PHOSPHATASE” value [3] was 371.67 u/L. The “ASPARTATE AMINOTRANSFERASE” value [3] was 93.67 u/L, the “BLOOD UREA NITROGEN” value [3] was 13.67 mg/dL and the “CARBON DIOXIDE” value [3] was 27.67 mmol/L. For the same molecule, the CHLORIDE [3] was 101 MEQ/L, the CHOLESTEROL [3] was 71.33 mg/dL and the “CREATINE PHOSPHOKINASE” value [3] was 286.67 u/L. It also gave a CREATININE [3] of 0.17 mg/dL, an LIPASE [3] of 9 u/L and a POTASSIUM [3] of 6.94 MEQ/L. The “TOTAL BILIRUBIN” value [3] was 0.27 mg/dL, the “TOTAL PROTEIN” value [3] was 5.97 G/DL and the “ABSOLUTE BASOPHIL” value [4] was 0 CELLS/uL. For the same molecule, the “ABSOLUTE EOSINOPHIL” value [4] was 0 CELLS/uL, the “ABSOLUTE LYMPHOCYTE” value [4] was 17320.33 CELLS/uL and the “ABSOLUTE MONOCYTE” value [4] was 316 CELLS/uL. For the same molecule, the “ABSOLUTE SEGMENTED NEUTROPHIL” value [4] was 1397 CELLS/uL, the BASOPHIL [4] was 0% and the EOSINOPHIL [4] was 0%. For the same molecule, the “ERYTHROCYTE COUNT” value [4] was 5.46 x10E6/uL, the HEMATOCRIT [4] was 34.3% and the “LEUKOCYTE COUNT” value [4] was 19.03 x10E3/uL. The LYMPHOCYTE [4] was 91%, the “MEAN CORPUSCULAR HEMOGLOBIN” value [4] was 24.7 pg and the “MEAN CORPUSCULAR HEMOGLOBIN CONCENTRATION” value [4] was 39.23 G/DL. The “MEAN CORPUSCULAR VOLUME” value [4] was 62.87 fL, the MONOCYTE [4] was 1.67% and the NEUTROPHIL [4] was 7.33%.
